In ChEMBL document CHEMBL5338791, “Discovery of Novel 1,3-Diphenylpyrazine Derivatives as Potent S-Phase Kinase-Associated Protein 2 (Skp2) Inhibitors for the Treatment of Cancer” (J Med Chem, 2023):
In brackets after ≈: the same amount, converted by molar mass. Activity calls are given as the source filed them. The calls are words filed in the database; no cut-off is given here.

Experiments:
PC-3 [1] = assay: Antitumor activity against human PC-3 cells assessed as cell growth inhibition incubated for 72 hrs by MTT assay; assay type: functional, cell-based; conditions: PC-3, 72 h
NCI-H1299 = assay: Antitumor activity against human NCI-H1299 cells assessed as cell growth inhibition incubated for 72 hrs by MTT assay; assay type: functional, cell-based; conditions: NCI-H1299, 72 h
[2] = Cmax in tumor of NOD-SCID mouse model xenografted with human PC-3 cells at 25 mg/kg, IG measured upto 48 hrs by LC-MS/MS analysis; assay type: ADME, organism-based, Neoplasm; set-up: time < 48 hrs, dose 25 mg/kg, route ig; conditions: po
[3] = Metabolic stability in human liver microsome assessed as half life at 20 umol/L preincubated for 5 mins followed by NADPH addition measured upto 60 mins by LC-MS/MS analysis; assay type: ADME; conditions: liver microsomes, dose 20 µmol/L, time < 65 min
MGC-803 [4] = assay: Upregulation of p27 level in human MGC-803 cells at 10 uM incubated upto 48 hrs by Western blot analysis; assay type: functional, cell-based
MGC-803 [5] = assay: Inhibition of colony formation in human MGC-803 cells at 0.5 to 2 uM incubated for 10 days by crystal violet staining based microscopy; assay type: functional, cell-based; conditions: dose 0.5-2 µM, time 10.0 day
PC-3 [6] = assay: Downregulation of Skp2 level in human PC-3 cells incubated for 48 hrs by Western blot analysis; assay type: functional, cell-based; conditions: dose <= 10.0 µM
PC-3 [7] = assay: Induction of apoptosis in human PC-3 cells assessed as nuclear condensation incubated for 48 hrs; assay type: functional, cell-based; conditions: dose <= 10.0 µM
MGC-803 [8] = assay: Induction of cell cycle arrest in human MGC-803 cells assessed as accumulation of cells at S phase at 10 uM incubated for 24 hrs by flow cytometry (reference value: 20.41 %); assay type: functional
MGC-803 [9] = assay: Induction of cell cycle arrest in human MGC-803 cells assessed as accumulation of cells at G2 phase at 10 uM incubated for 24 hrs by flow cytometry (reference value: 20.64 %); assay type: functional
[10] = Metabolic stability in mouse liver microsome assessed as half life at 20 umol/L preincubated for 5 mins followed by NADPH addition measured upto 60 mins by LC-MS/MS analysis; assay type: ADME; conditions: liver microsomes, dose 20 µmol/L, time < 65 min
[11] = Toxicity in NOD-SCID mouse model xenografted with human PC-3 cells assessed as drug tolerance at 10 to 50 mg/kg, IG administered once every 2 days for 21 days; assay type: organism-based; conditions: in vivo, po, 504 h, dose 10-50 mg/kg, time 21 day
[12] = Solubility in cell culture medium by HPLC analysis; assay type: physicochemical
PC-3 [13] = assay: Induction of cell cycle arrest in human PC-3 cells assessed as accumulation of cells at G2 phase at 10 uM incubated for 48 hrs by flow cytometry (reference value: 22.59 %); assay type: functional
MGC-803 [14] = assay: Inhibition of cell migration in human MGC-803 cells incubated for 48 hrs by wound healing assay; assay type: functional, cell-based; conditions: dose <= 2.0 µM
PC-3 [15] = assay: Induction of apoptosis in human PC-3 cells assessed as late apoptotic cells at 10 uM incubated for 48 hrs by annexin V-FITC/PI staining based flow cytometry (reference value: 0.45 %); assay type: functional
PC-3 [16] = assay: Induction of cell cycle arrest in human PC-3 cells assessed as accumulation of cells at G2 phase at 10 uM incubated for 24 hrs by flow cytometry (reference value: 19.34 %); assay type: functional
MGC-803 [17] = assay: Induction of apoptosis in human MGC-803 cells assessed as early apoptotic cells at 10 uM incubated for 48 hrs by annexin V-FITC/PI staining based flow cytometry (reference value: 0.21 %); assay type: functional
MGC-803 [18] = assay: Induction of cell cycle arrest in human MGC-803 cells assessed as accumulation of cells at S phase at 2.5 uM incubated for 48 hrs by flow cytometry (reference value: 22.72 %); assay type: functional
MGC-803 [19] = assay: Antitumor activity against human MGC-803 cells xenografted in NOD-SCID mouse model assessed as tumor growth inhibition at 10 to 50 mg/kg, IG administered once every 2 days for 21 days; assay type: functional, organism-based; conditions: dose 10-50 mg/kg, time 21.0 day
PC-3 [20] = assay: Induction of cell cycle arrest in human PC-3 cells assessed as accumulation of cells at G1 phase at 2.5 uM incubated for 48 hrs by flow cytometry (reference value: 57.39 %); assay type: functional
MGC-803 [21] = assay: Induction of cell cycle arrest in human MGC-803 cells assessed as accumulation of cells at S phase at 10 uM incubated for 48 hrs by flow cytometry (reference value: 22.72 %); assay type: functional
PC-3 [22] = assay: Induction of cell cycle arrest in human PC-3 cells assessed as accumulation of cells at G2 phase at 10 uM incubated for 12 hrs by flow cytometry (reference value: 19.34 %); assay type: functional
PC-3 [23] = assay: Antitumor activity against human PC-3 cells xenografted in NOD-SCID mouse model assessed as p21 accumulation at 10 to 50 mg/kg, IG administered once every 2 days for 21 days by Western blot analysis; assay type: functional, organism-based; conditions: dose 10-50 mg/kg, time 21.0 day
MGC-803 [24] = assay: Antitumor activity against human MGC-803 cells assessed as cell growth inhibition incubated for 72 hrs by MTT assay; assay type: functional, cell-based; conditions: MGC-803, 72 h
MGC-803 [25] = assay: Induction of apoptosis in human MGC-803 cells assessed as necrotic cells at 2.5 uM incubated for 48 hrs by annexin V-FITC/PI staining based flow cytometry (reference value: 0.89 %); assay type: functional

Work on `O=C(CCl)NC1CCN(c2cnc(-c3ccccc3)c(-c3ccccc3)n2)CC1` yielded an IC50 (PC-3 [1]) of 4.8 µM, an IC50 (NCI-H1299) of 7.1 µM and a Cmax [2] of 182 ng/g. For the same molecule, the half-life at 20 µM [3] was 66 min, the Activity (MGC-803 [4]) was “Active” and the inhibition (MGC-803 [5]) was “Active”. The Activity (PC-3 [6]) was “Dose-Dependent Effect”, the Activity (PC-3 [7]) was “Dose-Dependent Effect” and the Activity (MGC-803 [8]) was 35.4%. The Activity (MGC-803 [9]) was 17.72%, the half-life at 20 µM [10] was 15.3 min and the Activity [11] was “Non-Toxic”. For the same molecule, the solubility [12] was 3.26 µg/mL (≈ 8.01 µM), the Activity (PC-3 [13]) was 16.41% and the inhibition (MGC-803 [14]) was “Dose-Dependent Effect”. The Activity (PC-3 [15]) was 27.9%, the Activity (PC-3 [16]) was 15.19% and the Activity (MGC-803 [17]) was 3.41%. For the same molecule, the Activity (MGC-803 [18]) was 26.89%, the TGI (MGC-803 [19]) was “Active” and the Activity (PC-3 [20]) was 48.73%. For the same molecule, the Activity (MGC-803 [21]) was 45.07%, the Activity (PC-3 [22]) was 21.89% and the Activity (PC-3 [23]) was “Active”. For the same molecule, the IC50 (MGC-803 [24]) was 7 µM and the Activity (MGC-803 [25]) was 1.02%.
